“And” between values parts separate entries of the source, which are not always exact repeats. Identical values can stand only once.
Molecular target: wild-type Epidermal Growth Factor Receptor (EGFR) (Homo sapiens (Human), UniProt P00533)
Experiment: WT-EGFR kinase assay (TR-FRET, 2 mM ATP)
Type: biochemical
Conditions: median or individual measurements, Table 3, read-out: EGFR Wildtyp-2mM ATP IC50 [mol/l] (median)
Text: Inhibitory activity of compounds of the present invention against wild-type Epidermal Growth Factor Receptor (EGFR) was quantified employing the TR-FRET based EGFR assay as described in the following paragraphs.
Recombinant fusion protein of N-terminal Glutathion-S-Transferase (GST) and a fragment of human EGFR (amino acids R669 to A1210), expressed in Sf9 insect cells and purified via affinity chromatography using Glutathion Sepharose as described above, was used as kinase. As substrate for the kinase reaction the biotinylated peptide biotin-Ahx-AEEEEYFELVAKKK (C-terminus in amide form) was used which can be purchased e.g. form the company Biosynthan GmbH (Berlin-Buch, Germany).
For the assay 50 nl of a 100 fold concentrated solution of the test compound in DMSO was pipetted into either a black low volume 384 well microtiter plate or a black 1536 well microtiter plate (both Greiner Bio-One, Frickenhausen, Germany), 2 μL of a solution of EGFR in aqueous assay buffer [50 mM Hepes pH 7.0, 10 mM MgCl2, 1 mM dithiothreitol, 0.5 mM EGTA, 0.3 mM activated sodium ortho-vanadate, 0.005% (w/v) bovine serum albumin, 0.005% (v/v) Tween-20] were added and the mixture was incubated for 15 min at 22° C. to allow pre-binding of the test compounds to the enzyme before the start of the kinase reaction. Then the kinase reaction was started by the addition of 3 μL of a solution of adenosine-tri-phosphate (ATP, 3.33 mM=>final conc. in the 5 μL assay volume is 2 mM) and substrate (1.67 μM=>final conc. in the 5 μL assay volume is 1 μM) in assay buffer and the resulting mixture was incubated for a reaction time of 30 min at 22° C. The concentration of EGFR was adjusted depending of the activity of the enzyme lot and was chosen appropriate to have the assay in the linear range, typical concentration was 7.6 pg/μL. The reaction was stopped by the addition of 3 μL of a solution of HTRF detection reagents (83.3 nM streptavidine-XL665 [Cisbio Bioassays, Codolet, France] and 1.67 nM PT66-Tb-Cryptate, a terbium-cryptate labelled anti-phospho-tyrosine antibody from Cisbio Bioassays [instead of the PT66-Tb-cryptate PT66-Eu-Chelate from Perkin Elmer can also be used]) in an aqueous EDTA-solution (133.3 mM EDTA, 0.2% (w/v) bovine serum albumin in 50 mM HEPES pH 7.5).
The resulting mixture was incubated 1 h at 22° C. to allow the binding of the biotinylated phosphorylated peptide to the streptavidine-XL665 and the PT66-Tb-Cryptate. Subsequently the amount of phosphorylated substrate was evaluated by measurement of the resonance energy transfer from the PT66-Tb-Cryptate to the streptavidine-XL665. Therefore, the fluorescence emissions at 620 nm and 665 nm after excitation at 337 nm were measured in a HTRF reader, e.g. a Pherastar (BMG Labtechnologies, Offenburg, Germany) or a Viewlux (Perkin-Elmer). The ratio of the emissions at 665 nm and at […] was taken as the measure for the amount of phosphorylated substrate. The data were normalised (enzyme reaction without inhibitor=0% inhibition, all other assay components but no enzyme=100% inhibition).

wild-type Epidermal Growth Factor Receptor (EGFR), sequence (P00533 669-1210): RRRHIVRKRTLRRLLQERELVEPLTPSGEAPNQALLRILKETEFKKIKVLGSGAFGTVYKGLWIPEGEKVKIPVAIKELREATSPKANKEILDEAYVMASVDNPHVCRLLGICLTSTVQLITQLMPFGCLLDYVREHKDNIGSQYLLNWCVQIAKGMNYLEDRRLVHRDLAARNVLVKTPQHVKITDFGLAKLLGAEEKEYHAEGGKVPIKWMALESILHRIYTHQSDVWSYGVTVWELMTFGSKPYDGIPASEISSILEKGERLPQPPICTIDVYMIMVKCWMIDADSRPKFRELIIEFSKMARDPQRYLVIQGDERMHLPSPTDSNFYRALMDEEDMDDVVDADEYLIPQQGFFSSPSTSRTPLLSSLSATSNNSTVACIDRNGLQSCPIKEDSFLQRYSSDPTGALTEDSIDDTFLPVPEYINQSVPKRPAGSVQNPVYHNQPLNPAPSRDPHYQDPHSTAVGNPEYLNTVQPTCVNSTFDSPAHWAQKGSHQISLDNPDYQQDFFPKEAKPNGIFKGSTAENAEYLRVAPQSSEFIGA

CN1CC(CC(F)(F)F)c2[nH]c(-c3ccnc(NC(=O)C(CC(F)F)c4ccc(F)cc4)c3)c(Nc3cscn3)c2C1=O (racemic) [Example 52, (2RS)-4,4-difluoro-2-(4-fluorophenyl)-N-{4-[(7RS)-5-methyl-4-oxo-3-[(1,3-thiazol-4-yl)amino]-7-(2,2,2-trifluoroethyl)-4,5,6,7-tetrahydro-1H-pyrrolo[3,2-c]pyridin-2-yl]pyridin-2-yl}butanamide]
IC50: > 20 µM

CCC1CNC(=O)c2c1[nH]c(-c1ccnc(NC(=O)Cc3ccc(F)cc3)c1)c2Nc1ccccc1 (single isomer, unassigned) [Example 2, N-{4-[3-anilino-7-ethyl-4-oxo-4,5,6,7-tetrahydro-1H-pyrrolo[3,2-c]pyridin-2-yl]pyridin-2-yl}-2-(4-fluorophenyl)acetamide]
IC50: 0.19 µM

CN1CC(CC(F)(F)F)c2[nH]c(-c3ccnc(NC(=O)C(CC(F)F)c4ccc(F)cc4)c3)c(Nc3cscn3)c2C1=O (single isomer, unassigned) [Example 56, (2R or S)-4,4-difluoro-2-(4-fluorophenyl)-N-{4-[(7R or S)-5-methyl-4-oxo-3-[(1,3-thiazol-4-yl)amino]-7-(2,2,2-trifluoroethyl)-4,5,6,7-tetrahydro-1H-pyrrolo[3,2-c]pyridin-2-yl]pyridin-2-yl}butanamide]
IC50: > 20 µM

C[C@H](C(=O)Nc1cc(-c2[nH]c3ccn(C)c(=O)c3c2Nc2ccccc2)ccn1)c1ccc(F)cc1 (single isomer, unassigned) [Example 26]
IC50: > 20 µM

Cn1ccc2[nH]c(-c3ccnc(NC(=O)C(CC(F)F)c4ccc(F)cc4)c3)c(Nc3ccccc3)c2c1=O (racemic) [Example 28, N-[4-(3-anilino-5-methyl-4-oxo-4,5-dihydro-1H-pyrrolo[3,2-c]pyridin-2-yl)pyridin-2-yl]-4,4-difluoro-2-(4-fluorophenyl)butanamide]
IC50: 12 µM

CN1CC(CC2CC2)c2[nH]c(-c3ccnc(NC(=O)Cc4ccc(F)cc4)c3)c(Nc3ccccc3)c2C1=O (racemic) [Example 18, N-{4-[3-anilino-7-(cyclopropylmethyl)-5-methyl-4-oxo-4,5,6,7-tetrahydro-1H-pyrrolo[3,2-c]pyridin-2-yl]pyridin-2-yl}-2-(4-fluorophenyl)acetamide]
IC50: 4.3 µM

CN1CC(CC(F)(F)F)c2[nH]c(-c3ccnc(NC(=O)C(CC(F)F)c4ccc(F)cc4)c3)c(Nc3cscn3)c2C1=O (single isomer, unassigned) [Example 55, (2R or S)-4,4-difluoro-2-(4-fluorophenyl)-N-{4-[(7R or S)-5-methyl-4-oxo-3-[(1,3-thiazol-4-yl)amino]-7-(2,2,2-trifluoroethyl)-4,5,6,7-tetrahydro-1H-pyrrolo[3,2-c]pyridin-2-yl]pyridin-2-yl}butanamide]
IC50: 10.8 µM and 9.47 µM

O=C1N[C@@H]2CCC[C@@H]2c2[nH]c(-c3ccnc(NC(=O)C(CC(F)F)c4ccc(F)cc4)c3)c(Nc3ccccc3)c21 (single isomer, unassigned; (+)) [Example 25, (+)-(2R or S)—N-{4-[cis-3-anilino-4-oxo-1,4,5,5a,6,7,8,8a-octahydrocyclopenta[b]pyrrolo[2,3-d]pyridin-2-yl]pyridin-2-yl}-4,4-difluoro-2-(4-fluorophenyl)butanamide]
IC50: > 20 µM

CN1CC(CC(F)(F)F)c2[nH]c(-c3ccnc(NC(=O)Cc4ccc(F)cc4)c3)c(Nc3ccccc3)c2C1=O (racemic) [Example 14, N-{4-[3-anilino-5-methyl-4-oxo-7-(2,2,2-trifluoroethyl)-4,5,6,7-tetrahydro-1H-pyrrolo[3,2-c]pyridin-2-yl]pyridin-2-yl}-2-(4-fluorophenyl)acetamide]
IC50: 1.1 µM

CN1CC(CC(F)(F)F)c2[nH]c(-c3ccnc(NC(=O)Cc4ccc(F)cc4)c3)c(Nc3cscn3)c2C1=O (single isomer, unassigned) [Example 47, 2-(4-fluorophenyl)-N-{4-[(7R or S)-5-methyl-4-oxo-3-(1,3-thiazol-4-ylamino)-7-(2,2,2-trifluoroethyl)-4,5,6,7-tetrahydro-1H-pyrrolo[3,2-c]pyridin-2-yl]pyridin-2-yl}acetamide]
IC50: > 20 µM

C[C@@H](C(=O)Nc1cc(-c2[nH]c3ccn(C)c(=O)c3c2Nc2ccccc2)ccn1)c1ccc(F)cc1 (single isomer, unassigned) [Example 27]
IC50: > 20 µM

CCC1CNC(=O)c2c1[nH]c(-c1ccnc(NC(=O)Cc3ccc(F)cc3)c1)c2Nc1ccccc1 (racemic) [Example 1, N-{4-[3-anilino-7-ethyl-4-oxo-4,5,6,7-tetrahydro-1H-pyrrolo[3,2-c]pyridin-2-yl]pyridin-2-yl}-2-(4-fluorophenyl)acetamide]
IC50: 0.057 µM

CN1CC(CC2CC2)c2[nH]c(-c3ccnc(NC(=O)Cc4ccc(F)cc4)c3)c(Nc3cscn3)c2C1=O (racemic) [Example 49, N-{4-[(7RS)-7-(cyclopropylmethyl)-5-methyl-4-oxo-3-(1,3-thiazol-4-ylamino)-4,5,6,7-tetrahydro-1H-pyrrolo[3,2-c]pyridin-2-yl]pyridin-2-yl}-2-(4-fluorophenyl)acetamide]
IC50: > 20 µM

CN1CC(CC(F)(F)F)c2[nH]c(-c3ccnc(NC(=O)Cc4ccc(F)cc4)c3)c(Nc3cscn3)c2C1=O (racemic) [Example 46, 2-(4-fluorophenyl)-N-{4-[(7RS)-5-methyl-4-oxo-3-(1,3-thiazol-4-ylamino)-7-(2,2,2-trifluoroethyl)-4,5,6,7-tetrahydro-1H-pyrrolo[3,2-c]pyridin-2-yl]pyridin-2-yl}acetamide]
IC50: > 20 µM

Cc1cn(C)c(=O)c2c(Nc3ccccc3)c(-c3ccnc(NC(=O)C(C)c4ccc(F)cc4)c3)[nH]c12 (racemic) [Example 39, N-[4-(3-anilino-5,7-dimethyl-4-oxo-4,5-dihydro-1H-pyrrolo[3,2-c]pyridin-2-yl)pyridin-2-yl]-2-(4-fluorophenyl)propanamide]
IC50: 18 µM

CN1CC(CC(F)F)c2[nH]c(-c3ccnc(NC(=O)Cc4ccc(F)cc4)c3)c(Nc3ccccc3)c2C1=O (single isomer, unassigned) [Example 44, N-{4-[3-anilino-7-(2,2-difluoroethyl)-5-methyl-4-oxo-4,5,6,7-tetrahydro-1H-pyrrolo[3,2-c]pyridin-2-yl]pyridin-2-yl}-2-(4-fluorophenyl)acetamide]
IC50: 0.49 µM

CC1CN(C)C(=O)c2c1[nH]c(-c1ccnc(NC(=O)Cc3ccc(F)cc3)c1)c2Nc1ccccc1 (single isomer, unassigned; (-)) [Example 7, (−)-N-{4-[3-anilino-5,7-dimethyl-4-oxo-4,5,6,7-tetrahydro-1H-pyrrolo[3,2-c]pyridin-2-yl]pyridin-2-yl}-2-(4-fluorophenyl)acetamide]
IC50: 1.3 µM

Cc1ccccc1Nc1c(-c2ccnc(NC(=O)Cc3ccc(F)cc3)c2)[nH]c2c(CC(F)(F)F)cn(C)c(=O)c12 [Example 33, 2-(4-fluorophenyl)-N-{4-[5-methyl-3-(2-methylanilino)-4-oxo-7-(2,2,2-trifluoroethyl)-4,5-dihydro-1H-pyrrolo[3,2-c]pyridin-2-yl]pyridin-2-yl}acetamide]
IC50: 0.007 µM

O=C1N[C@@H]2CCC[C@@H]2c2[nH]c(-c3ccnc(NC(=O)C(CC(F)F)c4ccc(F)cc4)c3)c(Nc3ccccc3)c21 (single isomer, unassigned; (-)) [Example 23, (−)-(2R or S)—N-{4-[cis-3-anilino-4-oxo-1,4,5,5a,6,7,8,8a-octahydrocyclopenta[b]pyrrolo[2,3-d]pyridin-2-yl]pyridin-2-yl}-4,4-difluoro-2-(4-fluorophenyl)butanamide]
IC50: 13 µM

CN1CC(CC(F)F)c2[nH]c(-c3ccnc(NC(=O)Cc4ccc(F)cc4)c3)c(Nc3ccccc3)c2C1=O (single isomer, unassigned) [Example 43, N-{4-[3-anilino-7-(2,2-difluoroethyl)-5-methyl-4-oxo-4,5,6,7-tetrahydro-1H-pyrrolo[3,2-c]pyridin-2-yl]pyridin-2-yl}-2-(4-fluorophenyl)acetamide]
IC50: 0.41 µM
